From patent US12479847B2 (DANA-FARBER CANCER INSTITUTE, INC., priority 2019, dated 2025)
Read-outs that look alike come from different tables or passages of the source.

Assays:
Test in all cases: KINOMEscan (ScanMAX) kinase profiling
Format in all cases: binding
[1] = molecular target: T1, panel of 468 kinases (Homo sapiens, UniProt O14733); conditions: MKK7; 1 μM; read-out: % control
T1 construct: purchased KINOMEscan (ScanMAX) service
T1 sequence (O14733 1-419): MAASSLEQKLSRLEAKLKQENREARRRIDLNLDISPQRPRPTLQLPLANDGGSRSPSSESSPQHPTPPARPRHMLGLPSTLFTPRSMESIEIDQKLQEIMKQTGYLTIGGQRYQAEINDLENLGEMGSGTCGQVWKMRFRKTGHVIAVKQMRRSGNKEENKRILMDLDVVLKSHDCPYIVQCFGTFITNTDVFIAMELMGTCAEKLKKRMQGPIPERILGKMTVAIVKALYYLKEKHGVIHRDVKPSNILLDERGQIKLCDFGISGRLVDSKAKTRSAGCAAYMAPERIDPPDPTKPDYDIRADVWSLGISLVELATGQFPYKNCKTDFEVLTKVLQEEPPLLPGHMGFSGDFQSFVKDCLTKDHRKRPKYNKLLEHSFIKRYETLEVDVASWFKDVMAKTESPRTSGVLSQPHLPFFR

[2] = molecular target: T2, panel of 468 kinases (Homo sapiens, UniProt P00533, DEL752-759); conditions: EGFR(S752-I759del); 1 μM; read-out: % control
T2 construct: purchased KINOMEscan (ScanMAX) service

[3] = molecular target: T3, panel of 468 kinases (Homo sapiens, UniProt P36507); conditions: MEK2; 1 μM; read-out: % control
T3 construct: purchased KINOMEscan (ScanMAX) service

[4] = molecular target: T4, panel of 468 kinases (Homo sapiens, UniProt P51617); conditions: IRAK1; 1 μM; read-out: % control
T4 construct: purchased KINOMEscan (ScanMAX) service

[5] = molecular target: T5, panel of 468 kinases (Homo sapiens, UniProt Q15418); conditions: 1 μM, read-out: % control
T5 construct: purchased KINOMEscan (ScanMAX) service

[6] = molecular target: T6, panel of 468 kinases (Homo sapiens, UniProt Q6P3R8); conditions: NEK5; 1 μM; read-out: % control
T6 construct: purchased KINOMEscan (ScanMAX) service
T6 sequence (Q6P3R8 1-708): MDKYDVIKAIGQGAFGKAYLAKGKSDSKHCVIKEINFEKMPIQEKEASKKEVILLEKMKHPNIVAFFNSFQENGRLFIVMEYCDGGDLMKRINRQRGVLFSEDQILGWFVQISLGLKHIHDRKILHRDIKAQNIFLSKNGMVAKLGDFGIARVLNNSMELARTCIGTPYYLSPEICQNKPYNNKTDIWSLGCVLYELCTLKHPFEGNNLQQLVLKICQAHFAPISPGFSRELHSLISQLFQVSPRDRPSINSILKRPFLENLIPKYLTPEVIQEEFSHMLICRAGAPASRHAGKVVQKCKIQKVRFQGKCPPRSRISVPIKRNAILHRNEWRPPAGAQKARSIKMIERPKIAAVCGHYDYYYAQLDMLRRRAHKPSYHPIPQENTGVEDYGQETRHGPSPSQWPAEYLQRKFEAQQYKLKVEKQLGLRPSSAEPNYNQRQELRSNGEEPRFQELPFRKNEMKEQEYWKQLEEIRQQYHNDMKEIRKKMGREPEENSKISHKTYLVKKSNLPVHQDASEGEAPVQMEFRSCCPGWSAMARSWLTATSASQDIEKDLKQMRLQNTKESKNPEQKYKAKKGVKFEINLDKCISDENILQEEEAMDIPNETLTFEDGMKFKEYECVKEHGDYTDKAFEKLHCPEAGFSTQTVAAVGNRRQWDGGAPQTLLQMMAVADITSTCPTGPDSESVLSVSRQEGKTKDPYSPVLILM

[7] = molecular target: T7, panel of 468 kinases (Homo sapiens, UniProt Q8NG66); conditions: NEK11; 1 μM; read-out: % control
T7 construct: purchased KINOMEscan (ScanMAX) service
T7 sequence (Q8NG66 1-645): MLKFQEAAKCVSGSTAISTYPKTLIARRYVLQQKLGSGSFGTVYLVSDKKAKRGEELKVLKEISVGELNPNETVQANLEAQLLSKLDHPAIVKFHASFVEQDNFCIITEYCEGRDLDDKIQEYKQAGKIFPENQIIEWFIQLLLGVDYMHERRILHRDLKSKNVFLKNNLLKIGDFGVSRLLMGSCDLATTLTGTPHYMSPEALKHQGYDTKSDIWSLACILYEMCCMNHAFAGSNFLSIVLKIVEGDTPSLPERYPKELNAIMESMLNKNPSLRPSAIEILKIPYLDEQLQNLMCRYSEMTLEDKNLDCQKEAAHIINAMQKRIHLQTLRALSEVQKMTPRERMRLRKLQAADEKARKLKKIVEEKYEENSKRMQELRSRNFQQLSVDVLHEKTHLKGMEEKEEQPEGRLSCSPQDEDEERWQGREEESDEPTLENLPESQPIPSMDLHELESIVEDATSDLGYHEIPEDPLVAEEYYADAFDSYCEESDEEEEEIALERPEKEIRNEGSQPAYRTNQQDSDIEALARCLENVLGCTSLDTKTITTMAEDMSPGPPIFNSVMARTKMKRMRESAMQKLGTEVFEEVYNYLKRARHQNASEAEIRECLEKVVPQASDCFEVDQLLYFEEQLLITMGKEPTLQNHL

[8] = molecular target: T8, panel of 468 kinases (Homo sapiens, UniProt Q9UK32); conditions: 1 μM, read-out: % control
T8 construct: purchased KINOMEscan (ScanMAX) service
T8 sequence (Q9UK32 whole entry): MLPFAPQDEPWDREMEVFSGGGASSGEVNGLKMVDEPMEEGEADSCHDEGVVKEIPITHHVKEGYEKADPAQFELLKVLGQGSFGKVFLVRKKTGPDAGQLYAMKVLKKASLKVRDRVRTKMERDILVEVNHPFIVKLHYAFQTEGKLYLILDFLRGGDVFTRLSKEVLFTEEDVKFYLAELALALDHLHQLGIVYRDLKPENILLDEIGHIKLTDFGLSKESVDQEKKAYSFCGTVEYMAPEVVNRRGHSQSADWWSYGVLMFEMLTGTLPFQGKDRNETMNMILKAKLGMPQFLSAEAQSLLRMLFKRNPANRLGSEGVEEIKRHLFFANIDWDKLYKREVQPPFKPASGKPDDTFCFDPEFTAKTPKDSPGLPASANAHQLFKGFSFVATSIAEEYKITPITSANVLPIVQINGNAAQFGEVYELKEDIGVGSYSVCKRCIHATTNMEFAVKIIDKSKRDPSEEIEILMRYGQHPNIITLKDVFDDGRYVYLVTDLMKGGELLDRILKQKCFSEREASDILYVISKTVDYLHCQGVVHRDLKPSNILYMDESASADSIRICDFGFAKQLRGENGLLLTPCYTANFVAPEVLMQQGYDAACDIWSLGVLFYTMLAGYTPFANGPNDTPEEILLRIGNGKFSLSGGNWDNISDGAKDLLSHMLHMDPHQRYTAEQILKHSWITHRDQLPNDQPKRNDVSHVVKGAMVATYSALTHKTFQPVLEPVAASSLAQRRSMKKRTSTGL

T2 sequence (P00533 with tags, fused parts or gaps DEL752-759): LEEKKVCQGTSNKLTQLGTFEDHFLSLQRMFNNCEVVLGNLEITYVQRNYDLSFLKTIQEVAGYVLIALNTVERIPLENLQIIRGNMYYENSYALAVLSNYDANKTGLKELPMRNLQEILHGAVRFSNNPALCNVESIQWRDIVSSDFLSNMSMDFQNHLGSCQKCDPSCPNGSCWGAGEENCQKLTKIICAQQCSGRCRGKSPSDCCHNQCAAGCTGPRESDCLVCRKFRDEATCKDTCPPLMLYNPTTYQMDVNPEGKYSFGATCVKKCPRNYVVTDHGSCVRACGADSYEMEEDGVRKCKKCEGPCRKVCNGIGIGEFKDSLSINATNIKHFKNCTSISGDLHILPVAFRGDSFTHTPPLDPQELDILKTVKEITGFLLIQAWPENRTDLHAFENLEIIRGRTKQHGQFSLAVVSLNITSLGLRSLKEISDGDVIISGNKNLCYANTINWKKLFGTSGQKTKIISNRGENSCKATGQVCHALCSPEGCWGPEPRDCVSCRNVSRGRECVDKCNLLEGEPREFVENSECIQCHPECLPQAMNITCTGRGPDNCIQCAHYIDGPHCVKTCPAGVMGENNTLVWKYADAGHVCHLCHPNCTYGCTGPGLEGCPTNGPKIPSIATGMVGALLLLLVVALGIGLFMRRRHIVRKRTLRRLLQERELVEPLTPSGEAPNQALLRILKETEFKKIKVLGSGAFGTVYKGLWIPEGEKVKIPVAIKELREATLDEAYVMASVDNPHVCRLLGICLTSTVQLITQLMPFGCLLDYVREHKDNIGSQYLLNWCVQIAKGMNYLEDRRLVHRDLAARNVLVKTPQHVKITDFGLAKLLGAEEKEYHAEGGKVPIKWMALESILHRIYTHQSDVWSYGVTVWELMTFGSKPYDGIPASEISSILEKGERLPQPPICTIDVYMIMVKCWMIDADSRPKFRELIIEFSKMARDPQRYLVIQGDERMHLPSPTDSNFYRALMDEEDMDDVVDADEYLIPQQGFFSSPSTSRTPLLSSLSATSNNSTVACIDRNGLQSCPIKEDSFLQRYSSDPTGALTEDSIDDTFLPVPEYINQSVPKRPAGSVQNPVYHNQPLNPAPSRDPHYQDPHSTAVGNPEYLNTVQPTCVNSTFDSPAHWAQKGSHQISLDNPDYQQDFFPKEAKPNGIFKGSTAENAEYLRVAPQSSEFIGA
T4 sequence (P51617 whole entry): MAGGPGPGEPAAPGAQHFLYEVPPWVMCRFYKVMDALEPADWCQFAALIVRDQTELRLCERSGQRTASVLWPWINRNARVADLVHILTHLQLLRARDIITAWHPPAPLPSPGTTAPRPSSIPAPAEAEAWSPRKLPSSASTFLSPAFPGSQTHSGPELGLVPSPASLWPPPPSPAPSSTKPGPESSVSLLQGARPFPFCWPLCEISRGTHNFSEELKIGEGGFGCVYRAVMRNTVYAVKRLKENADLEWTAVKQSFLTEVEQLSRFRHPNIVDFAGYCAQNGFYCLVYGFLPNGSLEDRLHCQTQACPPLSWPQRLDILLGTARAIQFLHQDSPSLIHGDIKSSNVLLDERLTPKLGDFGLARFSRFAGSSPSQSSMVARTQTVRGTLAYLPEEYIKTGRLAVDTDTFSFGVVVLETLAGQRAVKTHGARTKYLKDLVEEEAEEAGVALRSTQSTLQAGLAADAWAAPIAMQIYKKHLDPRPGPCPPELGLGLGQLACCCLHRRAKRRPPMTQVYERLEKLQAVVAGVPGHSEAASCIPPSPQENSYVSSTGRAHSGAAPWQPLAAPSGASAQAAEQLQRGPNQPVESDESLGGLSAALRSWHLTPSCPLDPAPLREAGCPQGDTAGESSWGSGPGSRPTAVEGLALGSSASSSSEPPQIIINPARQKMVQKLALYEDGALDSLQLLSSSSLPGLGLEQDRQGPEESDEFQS
T3 sequence (P36507 whole entry): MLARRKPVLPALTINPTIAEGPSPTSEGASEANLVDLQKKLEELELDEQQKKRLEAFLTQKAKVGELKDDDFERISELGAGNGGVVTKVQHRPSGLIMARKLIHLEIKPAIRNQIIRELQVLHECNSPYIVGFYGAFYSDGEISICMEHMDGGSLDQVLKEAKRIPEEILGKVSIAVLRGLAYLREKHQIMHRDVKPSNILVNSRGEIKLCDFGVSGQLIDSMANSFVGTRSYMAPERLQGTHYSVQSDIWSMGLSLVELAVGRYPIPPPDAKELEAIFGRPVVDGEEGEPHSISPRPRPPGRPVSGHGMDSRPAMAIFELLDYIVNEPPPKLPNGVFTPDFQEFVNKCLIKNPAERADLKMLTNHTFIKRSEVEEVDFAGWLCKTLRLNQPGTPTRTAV
T5 sequence (Q15418 whole entry): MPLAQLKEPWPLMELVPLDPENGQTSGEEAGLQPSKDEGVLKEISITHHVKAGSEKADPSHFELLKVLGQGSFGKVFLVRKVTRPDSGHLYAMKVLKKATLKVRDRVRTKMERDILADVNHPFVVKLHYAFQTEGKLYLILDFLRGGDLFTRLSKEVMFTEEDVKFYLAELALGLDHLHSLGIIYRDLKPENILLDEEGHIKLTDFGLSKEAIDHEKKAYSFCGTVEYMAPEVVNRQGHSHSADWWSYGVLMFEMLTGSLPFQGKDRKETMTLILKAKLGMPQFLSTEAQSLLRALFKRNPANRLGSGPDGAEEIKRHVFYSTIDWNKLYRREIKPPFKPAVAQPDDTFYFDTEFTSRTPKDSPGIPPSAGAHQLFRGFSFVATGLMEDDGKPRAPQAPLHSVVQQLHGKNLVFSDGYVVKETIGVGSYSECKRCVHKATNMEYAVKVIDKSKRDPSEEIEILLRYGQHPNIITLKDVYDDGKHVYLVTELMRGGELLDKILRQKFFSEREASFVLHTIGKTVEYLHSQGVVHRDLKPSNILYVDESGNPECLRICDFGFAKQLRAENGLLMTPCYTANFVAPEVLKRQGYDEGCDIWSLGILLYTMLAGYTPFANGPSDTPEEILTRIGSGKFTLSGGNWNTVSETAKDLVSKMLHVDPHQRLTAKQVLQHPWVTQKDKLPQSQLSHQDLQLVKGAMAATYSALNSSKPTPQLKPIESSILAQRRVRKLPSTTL

SMILES | remaining binding at 1 µM [1] | remaining binding at 1 µM [2] | remaining binding at 1 µM [3] | remaining binding at 1 µM [4] | remaining binding at 1 µM ([5]; RSK1(Kin.Dom.1-N-terminal)) | remaining binding at 1 µM ([5]; RSK1(Kin.Dom.2-C-terminal)) | remaining binding at 1 µM [6] | remaining binding at 1 µM [7] | remaining binding at 1 µM ([8]; RSK4(Kin.Dom.1-N-terminal)) | remaining binding at 1 µM ([8]; RSK4(Kin.Dom.2-C-terminal))
CNc1nc(Nc2ccc(S(=O)(=O)N3CCC(N4CCOCC4)CC3)cc2OC)nc2[nH]cc(Cl)c12 [Compound 12, 5-chloro-N2-(2-methoxy-4-((4-morpholinopiperidin-1-yl)sulfonyl)phenyl)-N4-methyl-7H-pyrrolo[2,3-d]pyrimidine-2,4-diamine] | 100% | 100% | 78% | 92% | 100% | 100% | 100% | 96% | 96% | 99%
CNc1nc(Nc2ccc(C(=O)N3CCC(N4CCOCC4)CC3)c3c2OCO3)nc2[nH]cc(Cl)c12 [Compound 75, (7-((5-chloro-4-(methylamino)-7H-pyrrolo[2,3-d]pyrimidin-2-yl)amino)benzo[d][1,3]dioxol-4-yl)(4-morpholinopiperidin-1-yl)methanone] | 96% | 94% | 76% | 51% | 100% | 99% | 97% | 100% | 86% | 100%
CNc1nc(Nc2ccc(P3(=O)CCN(C4CCOCC4)CC3)cc2OC)nc2[nH]cc(Cl)c12 [Compound 77, 4-(4-((5-chloro-4-(methylamino)-7H-pyrrolo[2,3-d]pyrimidin-2-yl)amino)-3-methoxyphenyl)-1-(tetrahydro-2H-pyran-4-yl)-1,4-azaphosphinane 4-oxide] | 100% | 100% | 78% | 88% | 100% | 64% | 98% | 100% | 92% | 77%
